Data on 1 compound can be found in patent US20070213282A1, “Peroxisome proliferator-activated receptor (PPAR) activator, and drugs, supplements, functional foods and food additives using the same” (ARKRAY, Inc., priority 2004, published 2007).

Structures are written as SMILES.

For experiment [1], the target named is T1, human PPARγ ligand-binding domain (Homo sapiens, UniProt P37231).
T1 construct: expressed in transfected cells; host or cells: CV-1 cells (African green monkey kidney)
T1 sequence (P37231 204-505): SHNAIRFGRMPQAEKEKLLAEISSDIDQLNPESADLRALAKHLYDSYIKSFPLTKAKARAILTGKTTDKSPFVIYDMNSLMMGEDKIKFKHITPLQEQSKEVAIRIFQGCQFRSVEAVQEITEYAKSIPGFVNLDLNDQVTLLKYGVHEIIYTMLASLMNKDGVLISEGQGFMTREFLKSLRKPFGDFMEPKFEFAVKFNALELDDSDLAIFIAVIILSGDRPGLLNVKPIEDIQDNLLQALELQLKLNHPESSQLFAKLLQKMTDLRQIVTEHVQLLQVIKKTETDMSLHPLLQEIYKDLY
The experiment in a line: PPARγ ligand activity, GAL4-hPPARγ luciferase reporter assay in CV-1 cells. The experiment is classed as cell-based. As to conditions: for PPARγ ligand activity: luciferase activity relative to non-treatment control (DMSO) = 100, average ± standard error, n=4. The method, then: First, CV-1 cells (cultured cells derived from kidneys of male African green monkeys) were inoculated on 24-well culture plates so as to be […] and cultured at 37° C. in 5% CO2 for 24 hours. As a medium, DMEM (Dulbecco's Modified Eagle Medium; available from GIBCO) containing 10% FBS (fetal bovine serum) and a 10 mg/ml penicillin streptomycin solution was used. Next, using the Lipofectamine system (Invitrogen Corporation), pM-hPPARγ and p4×UASg-tk-luc were transfected into the cultured CV-1 cells. The above-noted pM-hPPARγ was a vector for expressing fusion protein containing residues 1-147 of GAL4 binding domain and residues 204-505 of human PPARγ ligand-binding domain, and the above-noted p4×UASg-tk-luc was a reporter plasmid containing four copies of an upstream activating sequence (UAS) for GAL4 binding domain and a thymidine kinase gene promoter upstream of a luciferase gene. After the transfection, the cells were cultured for about 24 hours, and then, the media for the cells were changed to media containing nobiletin at respective concentrations (0.1, 1.0, and 50 μM) or media for non-treatment control, followed by an additional 24 hour culture. The above-noted media containing nobiletin were prepared by adding nobiletin dissolved in dimethyl sulfoxide (DMSO) to the media, whereas the media for non-treatment control were prepared by adding only DMSO to the media. After the culture, the cells were lysed and the measurement of luciferase activity was performed using a Dual-Luciferase
Reporter Gene Assay system (available from Promega Corporation) (Measurement Group).
Similarly to the measurement group, as a control group, the measurement of luciferase activity was performed using pM (a vector containing residues 1-147 of GAL4 binding domain and not containing residues 204-505 of PPARγ ligand-binding domain in pM-hPPARγ) instead of the pM-hPPARγ. For each sample, the ratio between average luminescence intensities of the measurement group and the control group (n=4) (measurement group/control group) was calculated, and the luciferase activity relative to the non-treatment control was determined as the PPARγ ligand-binding activity of the sample.

A further experiment has as its system aP2 mRNA in 3T3-L1. Briefly: aP2 mRNA expression in differentiating 3T3-L1 preadipocytes (Light Cycler, ratio to 36B4). The format is cell-based. The settings on record: 3T3-L1, 7 days after differentiation induction, non-treatment control = 100, average ± standard error. Here is the method: (§1) (Differentiation Induction of Preadipocyte)
(§2) 1. Differentiation Induction Medium (0.25 μM DEX, 0.5 mM MIX, 10 μg/ml insulin/10% FBS/DMEM)
(§3) 55 ml of FBS (fetal bovine serum (available from GIBCO)) was added to 500 ml of DMEM (available from SIGMA) so as to prepare 10% FBS/DMEM. To this 10% FBS/DMEM, 138.75 μl of 1 mM DEX (dexamethasone)/DMSO (available from Nacalai Tesque, Inc.) and 555 μl of 10 mg/ml insulin/PBS (available from SIGMA) were added. Note here that the insulin/PBS was obtained by adding 1 N HCl to PBS in advance so as to make the solution acidic enough to allow insulin dissolution and then dissolving insulin. MIX (3-isobutyl-1-methylxanthine) (available from Nacalai Tesque, Inc.) was added to a necessary amount of the above-described medium immediately before use in such a manner as to achieve 0.5 mM concentration, thereby preparing a differentiation induction medium. Since MIX was very difficult to dissolve, it first was dissolved in a small amount of 99.5% ethanol and then added to 10% FBS/DMEM.
2. Differentiation Promotion Medium (5 μg/ml Insulin/10% FBS/DMEM) […]
Next, cultured preadipocytes 3T3-L1 were thawed, inoculated in a 100 mm dish and cultured until the 3T3-L1 cells reached about 80% confluence. […] 7 days after the initiation of the differentiation induction, mRNA was extracted using a Sepasol-RNA I Super (trade name; available from Nacalai Tesque, Inc.), and the mRNA expression amounts of 36B4, aP2 and adiponectin, which were indicators of an early period of adipocyte differentiation, were measured using a Light Cycler™.
(§4) The medium was removed from the above-described Swell plate, 1 ml of Sepasol-RNA I Super (available from Nacalai Tesque, Inc.) was added to each well, and pipetting was repeated several times so as to disperse the cells. […] The resultant precipitate (total RNA) was dried and then dissolved in 20 μl of nuclease free water, and the concentration of mRNA was measured using Nanoprop (available from SCRUM Inc.).
(§5) The extracted and measured mRNA solution was adjusted to have an mRNA concentration of 1 μg/μl. […]

The subject of experiment [2] is adiponectin mRNA in 3T3-L1. The experiment in a line: adiponectin mRNA expression in differentiating 3T3-L1 preadipocytes (Light Cycler, ratio to 36B4). The experiment is classed as cell-based. As to conditions: for Adiponectin mRNA expression amount (ratio to 36B4): 3T3-L1, 7 days after differentiation induction, non-treatment control = 100, average ± standard error. Here is the method:
as §1, §2, §3
2. Differentiation Promotion Medium (5 μg/ml Insulin/10% FBS/DMEM)
A differentiation promotion medium was prepared by adding 277.5 μl of 10 mg/ml insulin/PBS to 555 ml of 10% FBS/DMEM.
Next, cultured preadipocytes 3T3-L1 were thawed, inoculated in a 100 mm dish and cultured until the 3T3-L1 cells reached about 80% confluence. A single dish of 3T3-L1 that had reached about 80% confluence was subcultured to a single 6-well plate and further cultured until the 3T3-L1 cells reached confluence in the 6-well plate, and then the medium was replaced with the differentiation induction medium, followed by differentiation induction. 48 hours later, the medium was replaced with the differentiation promotion medium, and thereafter, the medium was replaced with the differentiation promotion medium every two days. 7 days after the initiation of the differentiation induction, mRNA was extracted using a Sepasol-RNA I Super (trade name; available from Nacalai Tesque, Inc.), and the mRNA expression amounts of 36B4, aP2 and adiponectin, which were indicators of an early period of adipocyte differentiation, were measured using a Light Cycler™.
as §4, §5

The subject of experiment [3] is spontaneously diabetic mice (KK-A^y). Briefly: adiponectin secretion amount in serum of spontaneously diabetic mice (KK-Ay), ELISA. The experiment is classed as in vivo. The source says:
The present example verified the diabetes relieving-effect of nobiletin through an experiment using spontaneously diabetic mice (KK-A^y).
First, twelve spontaneously diabetic mice (6-week old, female) were fed preliminarily with normal diet for one week. Next, the mice were divided into two groups, namely, a control group and a NOB group (n=6) such that the average weights of these two groups were the same. Then, the mice of the control group were fed with high-fat diet only, whereas the mice of the NOB group were fed with high-fat diet containing 0.02% nobiletin. 27 days or 28 days after the initiation of feeding, serum was collected from these mice. […]
Only the strips of the antibody plates necessary for the analysis were taken out. […] Thereafter, 100 μl of the standard solutions with respective concentrations and 100 μl of the diluted specimen solutions were added to the individual wells and measured in duplicate. Note here that the standard solutions always were measured for each measurement and each plate. […] After 100 μl of the substrate solution was added to each well of the antibody plate and allowed to stand still for reaction for 15 minutes at room temperature, 100 μl of the reaction stop solution was added to each well of the antibody plate, and then the absorbance at 450 nm in each well was measured with a plate reader. […]

Consider `COc1ccc(-c2cc(=O)c3c(OC)c(OC)c(OC)c(OC)c3o2)cc1OC` [nobiletin], for which the PPARγ ligand activity was 96.5 ± 10.8 in experiment [1] (0.1 μM), 156.8 ± 11.3 in experiment [1] (1.0 μM), 200.5 ± 55.1 in experiment [1] (10 μM) and 246 ± 41.7 in experiment [1] (50 μM). The “PPARγ activity, result in words” value in experiment [1] (0.1-50 μM, versus non-treatment control) is given as “increased significantly in keeping with the concentration of nobiletin”. Besides, the “aP2 mRNA expression amount (ratio to 36B4)” value in the experiment with aP2 mRNA in 3T3-L1 (5 μM) worked out at 193.7 ± 41.4; in the experiment on aP2 mRNA in 3T3-L1 (10 μM), 273.1 ± 13.8; in the experiment on aP2 mRNA in 3T3-L1 (1 μm), 155.8 ± 21.7. Also, the “Adiponectin mRNA expression amount (ratio to 36B4)” value in experiment [2] (5 μM) is reported as 265.1 ± 60.4; in experiment [2] (10 μM), 352.3 ± 28.5; in experiment [2] (1 μm), 164.9 ± 18.7. The “secretion of adiponectin in adipocytes, result in words” value in experiment [2] (3T3-L1 cultured with nobiletin versus non-treated control medium) is on record as “enhance the secretion of adiponectin in the adipocytes significantly”. Also, the Adiponectin secretion amount in experiment [3] (KK-Ay mice, high-fat diet containing 0.02% nobiletin, serum 27 or 28 days after initiation of feeding, average ± standard error, n=6, control group 4.78 ± 0.096) was 7.18 ± 0.50. The “adiponectin secretion amount, result in words” value in experiment [3] (diabetic mice of NOB group versus control group) was “increase the adiponectin secretion amount in the adipocytes significantly”.
